# According to ChEMBL document CHEMBL1201862, “PubChem BioAssay data set” (2004):
#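 Results reflect a 48-hour exposure of cells in 96-well plates to compound at five concentrations. GI50 = concentration required for 50% inhibition of growth.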 Activity calls are given as the source filed them. Rule as the data show it: active = GI50 up to about 1.1 µM and inactive = higher.
# Columns and labels:
# Experiment in all cases: inhibition of tumour cell growth, NCI panel, 48 h
# KM12 = test system: KM12
# CCRF-CEM = test system: CCRF-CEM
# K562 = test system: K562
# OVCAR-4 = test system: OVCAR-4
# SK-MEL-2 = test system: SK-MEL-2
# SK-MEL-28 = test system: SK-MEL-28
# OVCAR-3 = test system: OVCAR-3
# KM-20L2 = test system: KM-20L2
# HCT-116 = test system: HCT-116
# NCI-H522 = test system: NCI-H522
# CAKI-1 = test system: CAKI-1
# 786-0 = test system: 786-0
# HCC 2998 = test system: HCC 2998
# IGROV-1 = test system: IGROV-1
# U-251 = test system: U-251
# HL-60 = test system: HL-60
# UACC-257 = test system: UACC-257
# RPMI-8226 = test system: RPMI-8226
# LXFL 529 = test system: LXFL 529
# HOP-62 = test system: HOP-62
# ACHN = test system: ACHN
# SK-MEL-5 = test system: SK-MEL-5
# OVCAR-8 = test system: OVCAR-8
# SK-OV-3 = test system: SK-OV-3
# M14 = test system: M14
# SNB-75 = test system: SNB-75
# RXF 393 = test system: RXF 393
# UO-31 = test system: UO-31
# MOLT-4 = test system: MOLT-4
# SW-620 = test system: SW-620
# SNB-19 = test system: SNB-19
# XF498 = test system: XF498
# A498 = test system: A498
# SN12C = test system: SN12C
# SF-295 = test system: SF-295
# SF-539 = test system: SF-539
# UACC-62 = test system: UACC-62
# DMS-273 = test system: DMS-273
# HCT-15 = test system: HCT-15
# NCI-H460 = test system: NCI-H460
# SNB-78 = test system: SNB-78
# COLO 205 = test system: COLO 205
# SF-268 = test system: SF-268
# Malme-3M = test system: Malme-3M
# M19-MEL = test system: M19-MEL
# HOP-18 = test system: HOP-18
# A549 = test system: A549
# TK-10 = test system: TK-10
# NCI-H23 = test system: NCI-H23
# EKVX = test system: EKVX
# DLD-1 = test system: DLD-1
# NCI-H226 = test system: NCI-H226
# DU-145 = test system: DU-145
# HOP-92 = test system: HOP-92
# LOX IMVI = test system: LOX IMVI
# OVCAR-5 = test system: OVCAR-5
# SR = test system: SR
# HT-29 = test system: HT-29
structure (smiles),measurement,setting,value
N#Cc1ccc(C2SCc3nc4ccccc4n32)cc1 (stereo not given),GI50,KM12,> 100 µM (inactive)
same,GI50,CCRF-CEM,> 100 µM (inactive)
same,GI50,K562,41.6 µM (inactive)
same,GI50,OVCAR-4,83.2 µM (inactive)
same,GI50,SK-MEL-2,> 100 µM (inactive)
same,GI50,SK-MEL-28,42.4 µM (inactive)
same,GI50,OVCAR-3,> 100 µM (inactive)
same,GI50,KM-20L2,52.7 µM (inactive)
same,GI50,HCT-116,44.8 µM (inactive)
same,GI50,NCI-H522,12.3 µM (inactive)
same,GI50,CAKI-1,> 100 µM (inactive)
same,GI50,786-0,> 100 µM (inactive)
same,GI50,HCC 2998,> 100 µM (inactive)
same,GI50,IGROV-1,79.4 µM (inactive)
same,GI50,U-251,> 100 µM (inactive)
same,GI50,HL-60,31.3 µM (inactive)
same,GI50,UACC-257,> 100 µM (inactive)
same,GI50,RPMI-8226,49.8 µM (inactive)
same,GI50,LXFL 529,45.4 µM (inactive)
same,GI50,HOP-62,98.6 µM (inactive)
same,GI50,ACHN,63.8 µM (inactive)
same,GI50,SK-MEL-5,32.7 µM (inactive)
same,GI50,OVCAR-8,76.9 µM (inactive)
same,GI50,SK-OV-3,> 100 µM (inactive)
same,GI50,M14,54.2 µM (inactive)
same,GI50,SNB-75,38.5 µM (inactive)
same,GI50,RXF 393,10.5 µM (inactive)
same,GI50,UO-31,15.2 µM (inactive)
same,GI50,MOLT-4,63.1 µM (inactive)
same,GI50,SW-620,> 100 µM (inactive)
same,GI50,SNB-19,81.7 µM (inactive)
same,GI50,XF498,> 100 µM (inactive)
same,GI50,A498,58.7 µM (inactive)
same,GI50,SN12C,75 µM (inactive)
same,GI50,SF-295,74.3 µM (inactive)
same,GI50,SF-539,84.7 µM (inactive)
same,GI50,UACC-62,50.7 µM (inactive)
same,GI50,DMS-273,> 100 µM (inactive)
same,GI50,HCT-15,> 100 µM
same,GI50,NCI-H460,> 100 µM (inactive)
same,GI50,SNB-78,> 100 µM (inactive)
same,GI50,COLO 205,> 100 µM (inactive)
same,GI50,SF-268,> 100 µM (inactive)
same,GI50,Malme-3M,> 100 µM (inactive)
same,GI50,M19-MEL,> 100 µM (inactive)
same,GI50,HOP-18,48.5 µM (inactive)
same,GI50,A549,81.8 µM (inactive)
same,GI50,TK-10,81.7 µM (inactive)
same,GI50,NCI-H23,25.6 µM (inactive)
same,GI50,EKVX,69.3 µM (inactive)
same,GI50,DLD-1,> 100 µM (inactive)
C[N+](C)(C)CC(=O)N/N=C/c1oc(-c2c(O)ccc3ccccc23)c(-c2c(O)ccc3ccccc23)c1[N+](=O)[O-],GI50,NCI-H226,17.4 µM (inactive)
same,GI50,KM12,11.5 µM (inactive)
same,GI50,CCRF-CEM,15.4 µM (inactive)
same,GI50,K562,12.6 µM (inactive)
same,GI50,DU-145,15.4 µM (inactive)
same,GI50,OVCAR-4,21.5 µM (inactive)
same,GI50,HOP-92,12.7 µM (inactive)
same,GI50,SK-MEL-2,16.2 µM (inactive)
same,GI50,SK-MEL-28,21.3 µM (inactive)
same,GI50,LOX IMVI,11.6 µM (inactive)
same,GI50,OVCAR-3,16.3 µM (inactive)
same,GI50,KM-20L2,3.1 µM (inactive)
same,GI50,HCT-116,12.2 µM (inactive)
same,GI50,NCI-H522,15.8 µM (inactive)
same,GI50,OVCAR-5,22.1 µM (inactive)
same,GI50,CAKI-1,24.7 µM (inactive)
same,GI50,786-0,19.9 µM (inactive)
same,GI50,HCC 2998,16 µM (inactive)
same,GI50,IGROV-1,11 µM (inactive)
same,GI50,U-251,15 µM (inactive)
same,GI50,HL-60,18.5 µM (inactive)
same,GI50,UACC-257,18.5 µM (inactive)
same,GI50,RPMI-8226,27 µM (inactive)
same,GI50,LXFL 529,14.8 µM (inactive)
same,GI50,ACHN,3.31 µM (inactive)
same,GI50,SK-MEL-5,8.87 µM (inactive)
same,GI50,OVCAR-8,19.1 µM (inactive)
same,GI50,SK-OV-3,14.2 µM (inactive)
same,GI50,M14,17.3 µM (inactive)
same,GI50,SNB-75,14.7 µM (inactive)
same,GI50,RXF 393,11.2 µM (inactive)
same,GI50,UO-31,7.36 µM (inactive)
same,GI50,MOLT-4,14.5 µM (inactive)
same,GI50,SW-620,21.5 µM (inactive)
same,GI50,SNB-19,28.2 µM (inactive)
same,GI50,SR,15.2 µM (inactive)
same,GI50,XF498,20.6 µM (inactive)
same,GI50,A498,16.9 µM (inactive)
same,GI50,SN12C,24.2 µM (inactive)
same,GI50,SF-295,17.1 µM (inactive)
same,GI50,SF-539,14.7 µM (inactive)
same,GI50,UACC-62,1.53 µM (inactive)
same,GI50,NCI-H460,19.5 µM (inactive)
same,GI50,COLO 205,21.9 µM (inactive)
same,GI50,SF-268,12.4 µM (inactive)
same,GI50,Malme-3M,11.4 µM (inactive)
same,GI50,M19-MEL,20.4 µM (inactive)
same,GI50,HOP-18,15.9 µM (inactive)
same,GI50,A549,21.5 µM (inactive)
same,GI50,HT-29,13.2 µM (inactive)
same,GI50,TK-10,26.3 µM (inactive)
same,GI50,NCI-H23,16.4 µM (inactive)
same,GI50,EKVX,21.9 µM (inactive)
same,GI50,DLD-1,14.1 µM (inactive)
